Laboratory results taken from ChEMBL document CHEMBL3507680, “University of Dundee, Gates Library screen for HepG2 cell viability”.

Test: Human HepG2 cell viability assay in 384 well format
Type: toxicity, cell-based
Set-up: dose 125 nL, time 70.5 hour; cytotoxicity at 70.5 h: concentration not given beside the values
Conditions: HepG2 cells, read-out: Inhibition

SMILES | cytotoxicity at 70.5 h [%]
CN1CCOC(CNCc2cnc(C(C)(C)C)s2)C1 (stereo not given) | 0.446
O=C(Nc1cccn(CC(F)(F)F)c1=O)c1ccncc1F | -11.6
CC(=O)N1CCN(C(=O)CN2CCCC2Cn2nc(C)cc2C)CC1 (stereo not given) | 11.5
CNC(=O)c1cnc(/C=C/c2ccc(O)c(OC)c2)s1 | -14.3
CCOCC1CC2(CCN(C(=O)C3CCSCC3)CC2)CO1 (stereo not given) | 8.92
NC(=O)c1ccccc1Oc1cccc(C2CCCNC2)n1 (stereo not given) | -4.29
CCc1n[nH]c(C2CN(CCCOc3cccc(C)c3)CCO2)n1 (stereo not given) | -3.37
CCN(Cc1ccncc1)c1nc(C)nc2oc(C)nc12 | -5.52
CCc1c(C)n(C)c2nc3ccccc3n2c1=O | 8.75
CC(C(=O)Nc1cccc(F)c1)N(C)CCN1CCOCC1 (stereo not given) | -4.4
CCn1cnc(NC(=O)N2CCC(c3ccc(Cl)cc3)C2)n1 (stereo not given) | 11.3
CC(C)OCc1cccc(CNc2cnn(C)c(=O)c2Cl)c1 | 3.32
Cc1cccnc1NC(=O)CSc1ccc2c(c1)OCCO2 | -9.85
Cn1cc(C2CCCN2C(=O)CCCOCc2ccccc2)cn1 (stereo not given) | 4.25
COc1ccc(N2CCN(CC[C@H](O)c3ccccc3)CC2=O)cc1 | -12.7
Cc1cc(NCCc2nc(C)c[nH]2)nc(-c2ccccc2O)n1 | -1.72
CCCNC(=O)CCc1ccnc2ccccc12 | -14
Cn1cccc1-c1cc(C(=O)N2CCCC2c2ccc(C(N)=O)s2)[nH]n1 (stereo not given) | -2.9
O=C(NC1(C(=O)O)CCCC1)C1Cc2cc(F)ccc2O1 (stereo not given) | 0.608
CCOc1ccc(CN(CCC#N)CCN2CCOCC2)cc1OC | -0.151
CCOCCCNc1nc(O)cc(C2CC(=O)N(C)C2)n1 (stereo not given) | 24.8
Cc1cc(NC(=O)Cc2ccccc2O)c[nH]c1=O | -13.3
NS(=O)(=O)CCCNC(=O)c1cnc(-c2ccsc2)s1 | -6.58

SMILES | cytotoxicity at 70.5 h [%]
CCc1cc(N[C@H](C(N)=O)[C@@H](C)CC)n2nccc2n1 | -1.65
Cc1ccc(NC(=O)N(CCO)CCO)c(OCc2ccccc2)c1 | 10.5
O=C(NC1CC1)N1Cc2[nH]nc(COc3cccnc3)c2C1 | -6.87
CC1CCCCN1C(=O)CCn1cnc2sccc2c1=O (stereo not given) | -5.84
O=C(c1cccc(-c2ccc(F)cc2)c1)N1CCCC(O)(CO)CC1 (stereo not given) | 9.52
CC(C)(C)n1cc(CNC2CCN(C(=O)c3ccoc3)CC2)cn1 | -1.77
N[C@H]1CC[C@@H](CN2CCCn3nc(CNC(=O)C4CCC4)cc3C2)CC1 | -9.19
COC(=O)CC(c1cnn(C)c1)c1oc(C)cc(=O)c1O (stereo not given) | 7.5
O=C1N(c2ccsc2)CCC12CCCN(Cc1cccnc1)C2 (stereo not given) | -7.79
COCCCn1ccc(NCc2cnc(C(C)(C)C)s2)n1 | 27.4
c1ccc(O[C@H]2COCCN(Cc3c[nH]c4ccccc34)C2)cc1 | -6.76
Cc1cnn(CC2CCCN2CC(=O)NC2CCOCC2)c1 (stereo not given) | 0.77
O=C1N(c2cccc(Cl)c2)Cc2nc(=O)n(Cc3cccc(F)c3)n21 | 0.196
C[C@H]1C[C@@H]2CCN(Cc3ccccn3)C[C@H]2O1 | -0.0314
CNC(=O)CNCc1c[nH]nc1-c1cc2ccccc2o1 | -1.2
Cn1ccnc1CN1C[C@@H](CN2CCCC2)[C@@H](CO)C1 | -5.13
CN(CCOc1cccc(CNS(C)(=O)=O)c1)C1CCOCC1 | 1.39
O=C(c1cc(Br)ccc1-n1cnnn1)N1CCCCC1 | 6.11
O=C(CC1CC1)N1CCn2cc(Cn3cccn3)nc2C1 | -15.8
CCOC(=O)C1CCN(C(=O)CN2CCCC2Cc2ccccc2)CC1 (stereo not given) | -17.2
O=C(c1ccno1)N1CC2(CCC(C(=O)N3CCCC3)O2)C1 (stereo not given) | -14.7
COCCN(Cc1ccco1)Cc1nc(-c2ccccc2C)no1 | 1.45
O=C(c1ccc[nH]1)N1CC2(CCN(c3ncccn3)C2)C1 | 1.3

SMILES | cytotoxicity at 70.5 h [%]
Cc1ccc(NC(=O)N2CCC(NC(=O)c3ccc(C)o3)CC2)cc1 | -11.5
COCCC(=O)N1C[C@H](C(C)C)[C@@H](N(C)C)C1 | -14.3
O=C(Nc1cccc(C(F)(F)F)c1)C1CC(=O)N(Cc2ccccn2)C1 (stereo not given) | 34.8
CN(C)c1cc(CNC(=O)c2cc(Cl)ccn2)ccn1 | -11.8
O=C(C1CCC1)N1C[C@@H]2CN(Cc3ccncc3)C(=O)[C@@H]2C1 | -12.5
Cn1ccnc1CN1C(=O)CO[C@H]2CN(Cc3ccccc3O)C[C@H]21 | -1.59
c1cnc(NCC2Cn3nnc(-c4ccoc4)c3CO2)nc1 (stereo not given) | -13.1
Cc1cnn(CC2CCCN2C(=O)c2ccc(Cl)cc2F)c1 (stereo not given) | -1.79
Cc1ccc(OCCC(=O)N2CCCC(n3nc(C)nc3C)C2)cc1 (stereo not given) | -11.7
CCOc1ccccc1NC(C)C(=O)N(C)Cc1cccc(F)c1 (stereo not given) | 6.19
Cc1nc2cc(F)cc(C(=O)N3CCN(CCO)CC3)c2nc1C | -5.18
Cc1nc(C(=O)NCc2ccccn2)cc(C2CCCN2)n1 (stereo not given) | 20.2
c1cncc(-c2noc(CN3CCc4cncnc4C3)n2)c1 | -12.6
CN(CC1CCOCC1)C(C(=O)O)c1cccc(F)c1F (stereo not given) | 0.34
CC(C)(C)c1nc(CN(CCC2CCCCC2)CC(N)=O)no1 | 22.6
CC1CCN(C(=O)C2CCN(S(C)(=O)=O)CC2)c2ccccc21 (stereo not given) | -7.57
CN1N=C(C(=O)N2CCN(c3ncccn3)CC2)CCC1=O | 1.03
Cc1cc(N2CCN(C(=O)c3cc(Cl)c[nH]3)CC2)nc(N)n1 | -6.18
O=C(NCCn1nc(-n2cncn2)ccc1=O)c1ccsc1 | -4.55
CC(C)=CCCC(C)CN1CCC(n2cc(CO)nn2)CC1 (stereo not given) | -4.45
COc1cc(C(=O)N2CC[C@@H](NC(=O)c3ccccn3)[C@H](O)C2)ccn1 | -9.28
CCOCC(=O)NCCCn1ccnc1-c1ccccc1 | -7.22
CCOCC1CN(Cc2nccs2)Cc2nn(CC3CC3)cc21 (stereo not given) | -9.99

SMILES | cytotoxicity at 70.5 h [%]
N#Cc1cc(C#N)c(SCC(=O)NCc2ccc(F)cc2)nc1N | 27.8
OCc1csc(N2CCCC(CO)(Cc3cccc(Cl)c3)C2)n1 (stereo not given) | 12.4
O=C1c2cnc(N3CCCC3)nc2CN1C1CCS(=O)(=O)C1 (stereo not given) | -2.78
Cn1cc(CN2CCCN(C(=O)c3ccc4ccccc4n3)CC2)cn1 | -13
CC(c1nc(C(C)(C)C)no1)N1CCN(Cc2ccc(C#N)cc2)CC1 (stereo not given) | -1.19
O=C(CCc1ccco1)NS(=O)(=O)Cc1ccon1 | -3.83
NC(=O)CN1CCC(OCc2ccc(Cl)c(Cl)c2)CC1 | -1.02
CCn1c(C)nnc1CN(C)C1CCN(Cc2sc(C)nc2C)C1 (stereo not given) | 3.85
COc1cccc(OCCCc2cncc(C(N)=O)c2)c1 | -13.7
COc1cccc2c1OCC(Cc1ccc(N)nc1C)C2 (stereo not given) | -1.03
CCN(Cc1ccc(O)c(C(=O)O)c1)CC1CCCO1 (stereo not given) | 24.1
O=C1NCCN2CCN(C(=O)Nc3ccc(-c4ccccc4)cc3)CC12 (stereo not given) | 10.4
O=C(Nc1cc(CCC2CCN(CCO)CC2)ccn1)c1ccccn1 | 45.9
Cc1nc(Nc2ncccn2)cc(C2CN(C(=O)c3cccnc3)C2)n1 | -8.6
COCCn1ccnc1C1CCCN(C(=O)c2ccncc2F)C1 (stereo not given) | 11
CN(C)Cc1ccc(NC(=O)c2nccn3ccnc23)cc1 | -4.61
Cc1nc(C)c(CN2CCOC[C@H](Oc3ccccc3)C2)s1 | -10.6
COc1cccc(-c2nc(C)c(C(=O)NC(CO)CCSC)s2)c1 (stereo not given) | -25
Cc1ccccc1N1CC2(CCN(c3nncs3)C2)CC1=O (stereo not given) | -1.13
O=S(=O)(N1CCCC1)N1CCc2sccc2C1 | 0.675
O=C(c1cscn1)N1CC[C@H]2[C@@H]1CCC(=O)N2c1ccccc1 | 1.24
CC(C)N(Cc1ccccn1)Cc1nc2c(cnn2C)c(=O)[nH]1 | -6.49
Cc1c(CN2CCOCC2)c(O)n(CCc2ccccc2)c(=O)c1C#N | -9.75

SMILES | cytotoxicity at 70.5 h [%]
Cc1cc(C(=O)N2CCCC(c3nc(C)no3)C2)on1 (stereo not given) | -10.6
OCC1CN(Cc2nc(C(F)(F)F)cs2)c2ccccc2O1 (stereo not given) | -9.55
Cc1ccc(CN2CCn3c(COc4cccnc4)cnc3C2C)o1 (stereo not given) | -7.88
O=C(O)c1coc(COc2cccc(F)c2)n1 | -4.11
CCOc1ccccc1CCNC(=O)NCC(O)c1cccs1 (stereo not given) | -4.36
CCc1nc(CN2CC[C@@](O)(CCOC)[C@H](C)C2)cs1 | 17.7
C[C@@H]1CN(Cc2ccc(C(F)(F)F)cc2F)CC[C@]1(C)O | 26.4
Cc1cccc(CO[C@@H]2CC[C@H]3[C@H]2OCCN3Cc2ccsc2)n1 | -12.2
CC(C)c1ccc(CNC(C)c2ccc(S(=O)(=O)N(C)C)cc2)cc1 (stereo not given) | -2.78
O=C(C1CCCCC1)N1C[C@@H]2CCN(c3cnccn3)C[C@@H]2C1 | -6.4
Nc1nccc(N2CCNC(C(=O)NCc3ccccn3)C2)n1 (stereo not given) | 10.1
Cc1nc(CNC(=O)NC2CCN(c3ncccn3)CC2)cs1 | -6.89
CCNC(=O)c1cc(OC)c2cc(F)cc(C)c2n1 | -12.9
CC(C)(CNc1cccc(Cl)c1)NC(=O)C1CCCN(CC(N)=O)C1 (stereo not given) | -8.71
CN1CCOCC12CCN(c1nncs1)CC2 | -2.11
OCC1(Cc2ccc(Cl)cc2)CCN(Cc2cccnc2)CC1 | 10.8
Cn1ccnc1CN1CCC2(CC(=O)N(c3cncnc3)C2)C1 (stereo not given) | -14.3
CSc1c[nH]nc1NS(=O)(=O)c1ccc(C)c(C)c1 | -2.13
O=C(CCn1ccccc1=O)N1CCN(Cc2cccc(Cl)c2)CC1 | -12.6
Cc1ccc(-n2ncc(C(=O)N(C)C3CCN(C)CC3)c2N)cc1C | 8.36
CN1CCN(C[C@@H]2CN(C(=O)CCc3cn[nH]c3)C[C@@H]2CO)CC1 | -6.13
CCn1ccnc1CNCC1CCCN1c1cccnn1 (stereo not given) | 5.62
Cc1ccc(NC(=O)c2nc3c(s2)CCCN3C(=O)C2CC2)cn1 | 3.07
